The target in the assay is CK2A1 (CK2α/β) (Homo sapiens, UniProt P68400). Put plainly: CK2 kinase assay, CK2A1 (CK2α/β). As to conditions: Table A; read-out: CK2A1 (CK2α/β) (IC50). It counts as biochemical.
CK2A1 (CK2α/β), sequence (P68400 whole entry, species assumed): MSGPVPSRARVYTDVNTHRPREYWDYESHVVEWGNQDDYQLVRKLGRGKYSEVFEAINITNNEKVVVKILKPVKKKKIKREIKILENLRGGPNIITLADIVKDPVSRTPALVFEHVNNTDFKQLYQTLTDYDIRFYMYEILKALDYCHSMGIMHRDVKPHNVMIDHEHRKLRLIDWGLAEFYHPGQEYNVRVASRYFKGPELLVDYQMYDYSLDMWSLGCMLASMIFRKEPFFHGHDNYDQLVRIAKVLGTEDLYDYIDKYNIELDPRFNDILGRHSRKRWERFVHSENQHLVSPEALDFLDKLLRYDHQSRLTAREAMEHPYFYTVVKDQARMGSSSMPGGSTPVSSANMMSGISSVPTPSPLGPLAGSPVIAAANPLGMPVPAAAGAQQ
CK2A1 (CK2α/β), sequence (P67870 whole entry partner, species assumed): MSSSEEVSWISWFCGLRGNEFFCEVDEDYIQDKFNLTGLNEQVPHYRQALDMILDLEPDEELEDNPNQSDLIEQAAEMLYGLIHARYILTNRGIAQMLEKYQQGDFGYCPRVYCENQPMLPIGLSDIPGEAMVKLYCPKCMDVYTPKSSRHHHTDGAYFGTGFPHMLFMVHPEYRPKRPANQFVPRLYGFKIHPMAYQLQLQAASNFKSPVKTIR
In the case of `CCNc1nc(Nc2cc(C#N)cc(N3CC[C@@H](NC(=O)OCC)[C@H](O)C3)c2Cl)nn2c(C#N)cnc12` [Example 332, ethyl ((3R,4R)-1-(2-chloro-5-cyano-3-((7-cyano-4-(ethylamino)imidazo[2,1-f][1,2,4]triazin-2-yl)amino)phenyl)-3-hydroxypiperidin-4-yl)carbamate], the IC50 came to 0.41 nM. The value for `CCNc1nc(Nc2cc(C#N)cc(N3C[C@H](NC(=O)OC)[C@@H](OC)C3)c2Cl)nn2c(C#N)cnc12` [Example 333, methyl ((3S,4S)-1-(2-chloro-5-cyano-3-((7-cyano-4-(ethylamino)imidazo [2,1-f][1,2,4]triazin-2-yl)amino)phenyl)-4-methoxy-3-pyrrolidinyl)carbamate] was 0.46 nM. For `CCNc1nc(Nc2cc(C#N)cc(N3C[C@H](NC(=O)OC)[C@H](OC)C3)c2Cl)nn2c(C#N)cnc12` [Example 334, methyl ((3S,4R)-1-(2-chloro-5-cyano-3-((7-cyano-4-(ethylamino)imidazo[2,1-f][1,2,4]triazin-2-yl)amino)phenyl)-4-methoxy-3-pyrrolidinyl)carbamate] the value was 1.1 nM. For `CCNc1nc(Nc2cc(C#N)cc(N3C[C@@H](C)[C@@H](NC(=O)OC)C3)c2Cl)nn2c(C#N)cnc12` [Example 335, methyl ((3R,4R)-1-(2-chloro-5-cyano-3-((7-cyano-4-(ethylamino)imidazo[2,1-f][1,2,4]triazin-2-yl)amino)phenyl)-4-methyl-3-pyrrolidinyl)carbamate] the value was 3.97 nM; for `CCNc1nc(Nc2cc(C#N)cc(N3CC[C@@H](NC(=O)OC)[C@H](OP(=O)(O)O)C3)c2Cl)nn2c(C#N)cnc12` [Example 337, methyl ((3R,4R)-1-(2-chloro-5-cyano-3-((7-cyano-4-(ethylamino)imidazo[2,1-f][1,2,4]triazin-2-yl)amino)phenyl)-3-(phosphonooxy)piperidin-4-yl)carbamate], 16 nM; for `CCNc1nc(Nc2cc(C#N)cc(N3CC[C@H](NC(=O)OC)[C@@H](OP(=O)(O)O)C3)c2Cl)nn2c(C#N)cnc12` [Example 338, methyl ((3S,4S)-1-(2-chloro-5-cyano-3-((7-cyano-4-(ethylamino)imidazo[2,1-f][1,2,4]triazin-2-yl)amino)phenyl)-3-(phosphonooxy)-4-piperidinyl)carbamate], 0.82 nM.

Take `CCNc1nc(Nc2cc(C#N)cc(N3CC[C@@H](NC(=O)OC)[C@H](OC(=O)[C@H](C)OP(=O)(O)O)C3)c2Cl)nn2c(C#N)cnc12` [Example 340, (S)-(3R,4R)-1-(2-chloro-5-cyano-3-((7-cyano-4-(ethylamino)imidazo[2,1-f][1,2,4]triazin-2-yl)amino)phenyl)-4-((methoxycarbonyl)amino)piperidin-3-yl 2-(phosphonooxy)propanoate]: the IC50 was determined as 6 nM.

For the compound `CCNc1nc(Nc2cc(C#N)cc(N3CC[C@@H](NC(=O)OC)[C@H](OC(=O)[C@H](C)O)C3)c2Cl)nn2c(C#N)cnc12` [Example 341, (S)-(3R,4R)-1-(2-chloro-5-cyano-3-((7-cyano-4-(ethylamino)imidazo[2,1-f][1,2,4]triazin-2-yl)amino)phenyl)-4-((methoxycarbonyl)amino)piperidin-3-yl 2-hydroxypropanoate], the IC50 was 1 nM. The value for `CCNc1nc(Nc2cc(C#N)cc(N3CC[C@@H](NC(=O)OC)[C@H](OC(=O)[C@@H](C)OP(=O)(O)O)C3)c2Cl)nn2c(C#N)cnc12` [Example 342, (R)-(3R,4R)-1-(2-chloro-5-cyano-3-((7-cyano-4-(ethylamino)imidazo[2,1-f][1,2,4]triazin-2-yl)amino)phenyl)-4-((methoxycarbonyl)amino)piperidin-3-yl 2-(phosphonooxy)propanoate] was 0.37 nM.

These data come from patent publication US9273057B2 (Bristol-Myers Squibb Company, priority 2012, dated 2016).
